# Measurements taken from patent US11998553B2, “Certain (2S)-N-[(1S)-1-cyano-2-phenylethyl]-1,4-oxazepane-2-carboxamides for treating lupus nephritis” (Insmed Incorporated, priority 2018, dated 2024).
# System: NZB/WF1 mice
# Experiment: Accelerated lupus nephritis model in mice (Ad-IFNα5 injection)
# Assay type: in vivo
# Description: INS1007 as a potential treatment for LN was assessed. 10-11 week old female New Zealand Black/New Zealand White F1 (NZB/WF1) mice (Jackson Laboratory) were subjected to a single injection of an adenovirus expressing IFNα5 (Ad-IFNα5, BioXcell, cat #BE0241, clone AR1-5A3) to accelerate the clinical manifestations of LN. FIG. 1 provides a schematic overview of the study design.
# The duration of the study was 8 weeks from Ad-IFNα5 injection.
# Urine and blood collection was carried out at baseline (immediately after Ad-IFNα5 injection), and at weeks 2, 4, 6 and 8. Total protein (by chemstick), albumin (by ELISA) and creatinine (by a colorimetric assay kit) was measured in urine and blood urea nitrogen (BUN) was measured in plasma.
# Animals were sacrificed at 8 weeks and the left kidney of each animal was used for histopathology analysis. Pathology scores are summed from individual scores of three aspects: glomerulonephritis, tubular protein and nephropathy and were scored by a Certified Veterinary Pathologist.
# The right kidneys of each animal were used for FACS analysis. Right kidneys were digested and subjected to Percoll centrifugation, fixable-viability-dye and surface staining for the following markers: CD45, CD3, CD11b, F4/80, Ly6G and Ly6C. Results of FACS are provided at FIGS. 7-13.
structure (smiles),measurement,setting,value
"Cn1c(=O)oc2ccc(-c3ccc(C[C@@H](C#N)NC(=O)[C@@H]4CNCCCO4)cc3)cc21 [INS1007, (2S)—N-{(1S)-1-cyano-2-[4-(3-methyl-2-oxo-2,3-dihydro-1,3-benzoxazol-5-yl)phenyl]ethyl}-1,4-oxazepane-2-carboxamide]",pseudo-survival (urine total protein less than 750 mg/dL),"days post Ad-IFNα5 injection, INS1007 0.1, 1, 10 mg/kg PO twice daily, FIG. 5",increased “pseudo-survival” (and decreased total protein concentration) in a dose dependent manner
same,"renal pathology score sum (glomerulonephritis, tubular protein, nephropathy)","left kidney histopathology at 8 weeks, vs vehicle, FIG. 6",decreased renal pathology as compared to vehicle control
same,blood urea nitrogen (BUN) levels,"plasma BUN (mg/dL), 6 weeks after model induction, INS1007 0.1, 1, 10 mg/kg PO twice daily, FIG. 4",decreased in animals treated with INS1007 in a dose dependent matter
same,T-lymphocyte percent of total kidney cells,"right kidney FACS, CD45+, CD3+, week 8, FIG. 13",significantly decreased
same,Ly6C+ macrophage percent of total kidney cells,"right kidney FACS, CD45+, CD11b+, F4/80+, Ly6C+, Ly6G−, week 8, FIG. 11",significantly decreased
same,Ly6C+ monocyte percent of total kidney cells,"right kidney FACS, CD45+, CD11b+, Ly6G−, Ly6C+, week 8, FIG. 10",significantly decreased
same,myelocyte percent of total kidney cells,"right kidney FACS, CD45+, CD11b+, week 8, FIG. 8",significantly decreased
same,urinary protein concentration,"urine total protein by chemstick (mg/dL), week 8, INS1007 0.1, 1, 10 mg/kg PO twice daily from week 2, FIG. 3",decrease in urinary protein concentration (mg/dL) in a dose dependent manner
